In paper PMC6337650 (Molecules, 2018) one finds IC50, inhibition and melting point data, which are given here for nine compounds.

One series concerns AGS cells. Conditions: read-out: IC50 against AGS cells; cited from earlier work.
The test system of another series is HT29 cells. Conditions: cell line printed as HT24 in b5; read-out: IC50 against HT24 cell line; cited from earlier work.
Another series concerns T24 cells. Particulars: Figure 2; read-out: IC50 against T24 cells; cited from earlier work.
The next series deals with HL-60 cells. The arrangement: method as in PMID 26653151, PMID 25405286. Conditions: Figure 2; read-out: IC50 against HL-60 cells; cited from earlier work.
The subject of another series is HeLa cells. Conditions: read-out: IC50 against HeLa cells; cited from earlier work.
The test system of the next series is L02 cells. Put plainly: MTT assay on normal liver cells L02. Conditions: Homo sapiens, normal liver cells, 48 h, MTT, Table 2, read-out: IC50 Values (μM) L02. The format is cell-based. How it is done: The antiproliferative activity of the target compounds against a normal L02 cell line and the three different human cancer cell lines viz. colorectal (HCT-116), liver (BEL-7402) and liver (HepG2) were evaluated using a standard MTT-based colorimetric assay. All cell lines were obtained from the Key Laboratory of Natural Resources and Functional Molecules of the Changbai Mountain (Yanbian University, Jilin, China) and maintained in Dulbecco’s modified Eagle’s medium (DMEM) and RPMI Media 1640 (RPMI1640), supplemented with 10% fetal bovine serum (FBS) at 37 °C in a humidified atmosphere containing 5% CO2.
Cells were plated in 96-well plates at appropriate densities to ensure exponential growth throughout the experimental period (9 × 10^3 cells per well) and then allowed to adhere for 24 h. Cells were then treated for 48 h with four serial concentrations (1, 10, 50 and 100 µM) of each compound. […] After 48 h of incubation, 10 µL of MTT solution was added to each well to a final concentration of 2 mg/mL. Plates were then incubated for a further 4 h. After incubation, the MTT solution was removed and 150 µL of DMSO was added to each well for coloration. The plates were shaken vigorously for 10 min at room temperature to ensure complete solubilization. The optical density (OD) was read on a microplate reader (ELx800, BioTek, Highland Park, Winooski, VT, USA) at a wavelength of 492 nm and the data were subsequently analyzed. The percentage of cell growth inhibition was calculated from the following equation: Inhibitory rate (%) = [(1 − (ODtreated-ODblank)/(ODcontrol-ODblank)] × 100.(1)

In a further series the test system is HepG2 cells. Description: MTT antiproliferative assay, HepG2. It is filed as cell-based, human. Particulars: Homo sapiens, HepG2, 48 h, MTT, mean ± SD, n=3; for inhibition at 100 µM: read-out: % Growth Inhibition at 100 μM HepG2. An outline of the steps: (§1)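 Cells seeded at 9 × 10^3 per well, allowed 24 h to adhere, then exposed 48 h to compound at 1, 10, 50 and 100 µM. MTT added to 2 mg/mL for 4 h, formazan dissolved in DMSO, OD read at 492 nm; inhibition calculated relative to untreated and blank wells.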

For another series, the system named is BEL-7402 cells. Description: MTT antiproliferative assay, BEL-7402. Conditions: Homo sapiens, Bel-7402, 48 h, MTT, mean ± SD, n=3; for inhibition at 100 µM: read-out: % Growth Inhibition at 100 μM BEL-7402. The format is cell-based, human. An outline of the steps:
as §1

The next series concerns HCT-116 cells. Put plainly: MTT antiproliferative assay, HCT-116. The format is cell-based, human. Particulars: Homo sapiens, HCT-116, 48 h, MTT, mean ± SD, n=3; for inhibition at 100 µM: read-out: % Growth Inhibition at 100 μM HCT-116. In short, it runs like this:
as §1

As a reminder, the IC50 is the point on the concentration scale where inhibition reaches its midpoint. By inhibition is commonly meant the percentage by which the read-out fell short of the control. In general, melting point refers to the temperature, or range, at which the solid turns liquid.

In the case of `COC(=O)C(Cc1c[nH]c2ccccc12)NC(=O)[C@]1(C)CC[C@]2(C)CC[C@]3(C)C4=CC=C5C(=CC(=O)C(O)=C5C)[C@]4(C)CC[C@@]3(C)C2C1` (stereo partly shown) [Compound C], the IC50 in the series on AGS cells is 0.44 µM.
For the compound `CC(=O)O[C@H]1CC[C@@]2(C)C(CC[C@]3(C)C2CC=C2C4CC(C)(C)CC[C@]4(C(=O)NCCN4CCCC4)CC[C@]23C)C1(C)C` (stereo partly shown) [Compound B], the IC50 with HT29 cells is 1.3 µM.
`CCOP(=O)(OCC)C(NC(=O)[C@]12CC[C@@H](C)[C@H](C)[C@H]1C1=CC[C@@H]3[C@@]4(C)C[C@@H](OC(C)=O)[C@H](OC(C)=O)[C@@](C)(COC(C)=O)[C@@H]4CC[C@@]3(C)[C@]1(C)CC2)c1ccccc1Cl` (stereo partly shown) [Compound D]: in the series on T24 cells, the IC50 was 6.59 µM.
`COC(=O)[C@]1(C)CCC[C@@]2(C)[C@@H]3CC[C@@]4(C)C[C@@]3(C=C4c3cn(CCCc4ccccc4)nn3)CC[C@@H]21` [Compound E]: the IC50 in the series with HL-60 cells was 25.6 µM.
As for `CC(=O)O[C@H]1CC[C@@]2(C)C(CC[C@]3(C)C2CC=C2C4[C@@H](C)[C@H](C)CC[C@]4(C(=O)Nc4ccccc4)CC[C@]23C)C1(C)C` (stereo partly shown) [Compound A], in the series with HeLa cells, the IC50 is 1.63 µM.
Compound `C[C@@]12CC[C@@H]3[C@@](CC[C@H]4[C@@]3(C)CCC[C@@]4(C)C(=O)OCC(=O)Nc3ccc([N+](=O)[O-])cc3)(CC1=O)C2` [Compound 4h, 2-((4-nitrophenyl)amino)-2-oxoethyl(4R,4aS,6aR,9S,11aR,11bS)-4,9,11b-trimethyl-8-oxotetradecahydro-6a,9-methanocyclohepta[a]naphthalene-4-carboxylate] registered a melting point of 189 to 190 °C. For the same compound, in the series on L02 cells, the concentration for half-maximal inhibition (IC50) was above 100 µM. Besides, in the series on HepG2 cells, the inhibition at 100 µM was determined as 76.5 ± 1% and the half-inhibitory concentration (IC50) amounted to 14.1 ± 0.27 µM. For the same compound, in the series with BEL-7402 cells, the inhibition at 100 µM was found to be 71.4 ± 2.36% and half-maximal inhibition (IC50) required 12.14 ± 0.12 µM. In the series with HCT-116 cells, the inhibition at 100 µM amounted to 55.4 ± 2.55% and the IC50 is above 100 µM.
For `C[C@@]12CC[C@@H]3[C@@](CC[C@H]4[C@@]3(C)CCC[C@@]4(C)C(=O)OCC(=O)NCc3cn(-c4ccc(Cl)c(Cl)c4)nn3)(CC1=O)C2` [Compound 5e, 2-(((1-(3,4-dichlorophenyl)-1H-1,2,3-triazol-4-yl)methyl)amino)-2-oxoethyl(4R,4aS,6aR,9S,11aR,11bS)-4,9,11b-trimethyl-8-oxotetradecahydro-6a,9-methanocyclohepta[a]naphthalene-4-carboxylate], the melting point lay in the range of 96 to 97 °C. Moreover, the IC50 with L02 cells was above 100 µM. In the series on HepG2 cells, the inhibition at 100 µM is 66.1 ± 0.97% and the midpoint of inhibition, the IC50, lay at 12.82 ± 0.09 µM. In the series on BEL-7402 cells, the inhibition at 100 µM was found to be 68 ± 1.17% and the 50% inhibitory concentration (IC50) was above 100 µM. For the same compound, in the series on HCT-116 cells, the inhibition at 100 µM is 71.14 ± 0.65% and the IC50 came to 14.3 ± 0.15 µM.
`CN(C)CCNC(=O)[C@]1(C)CCC[C@@]2(C)[C@@H]3CC[C@@]4(C)C[C@]3(CC[C@@H]21)CC4=O` [Compound 1b, (4R,4aS,6aR,9S,11aR,11bS)-N-(2-(dimethylamino)ethyl)-4,9,11b-trimethyl-8-oxotetradecahydro-6a,9-methanocyclohepta[a]naphthalene-4-carboxamide] had a melting point of 102 to 103 °C. In addition, the IC50 with L02 cells is above 100 µM. Moreover, in the series on HepG2 cells, the inhibition at 100 µM is 57 ± 2.35% and the IC50 is above 100 µM. Also, in the series on BEL-7402 cells, the inhibition at 100 µM came to 88.5 ± 2.02% and the IC50 is above 100 µM. For the same compound, in the series on HCT-116 cells, the inhibition at 100 µM amounted to 76.6 ± 1.78% and the IC50 is 24 ± 1.2 µM.
For `C[C@@]12CC[C@@H]3[C@@](CC[C@H]4[C@@]3(C)CCC[C@@]4(C)C(=O)OCC(=O)Nc3ccccc3)(CC1=O)C2` [Compound 4a, 2-oxo-2-(phenylamino)ethyl(4R,4aS,6aR,9S,11aR,11bS)-4,9,11b-trimethyl-8-oxotetradecahydro-6a,9-methanocyclohepta[a]naphthalene-4-carboxylate], the melting point is 154 to 156 °C. Also, the half-maximal inhibitory concentration (IC50) in the series with L02 cells is above 100 µM. Moreover, in the series with HepG2 cells, the inhibition at 100 µM worked out at 31.2 ± 1.19% and the IC50 was above 100 µM. Further, in the series with BEL-7402 cells, the inhibition at 100 µM worked out at 50.8 ± 2.31% and the IC50 was above 100 µM. Besides, in the series with HCT-116 cells, the inhibition at 100 µM stood at 60.4 ± 3.11% and the half-maximal inhibitory concentration (IC50) is 56.6 ± 1.56 µM.
